Laboratory results as given in US6387910B1, “Drug of improving optic nerve head circulation disorder” (Akzo Nobel N.V., priority 1998, dated 2002).

Legend:
[1] = test system: blood flow in the optic nerve head; experiment: Blood flow in the optic nerve head by laser speckle technique (rate of change of NB value); type: in vivo; details: rabbit, i.v.
Protocol: The optic nerve head circulation improving activity was measured by using as an index the rate of change of NB value as mentioned hereinafter.
1) Measurement of Blood Flow in the Optic Nerve Head by Laser Speckle Technique
(§1) Male New Zealand White rabbits (weighing 2.3-3.1 kg) were housed in an OSHIDA-type solid box and the left auricula was locally anesthetized with Xylocaine Spray (trademark, manufactured by Fujisawa Pharmaceutical) and Xylocaine Jelly (trademark, manufactured by Fujisawa Pharmaceutical), and a catheter (Polyethylene Tube SP28, manufactured by Natsume) were inserted into the post auricular artery for measuring the blood pressure and the heart rate, and the blood pressure and the heart rate were continuously recorded with a recorder (WT-645G, manufactured by Nihon-Koden). Under the local anesthesia, a catheter for administering the test drug (Polyethylene Tube SP31, manufactured by Natsume) was likewise inserted into the right post auricular vein of the animal.
The blood flow of the optic nerve head was measured by selecting a portion having no surface blood vessel at the right optic nerve head [0.42×0.42 mm (field angle 30°) with an eyegrounds circulation analyzer (Laser speckle circulation analyzer-II: LSCA-II), measuring the mean value of the quantitative index of blurring in whole field (100×100) [NB value (normalized blur value)], and calculating the rate of change (%) of the NB value by the following equation: [formula]
By the way, the test drug was prepared by adding a 20% dimethylacetamide solution containing 2% tartaric acid to a drug to be tested so as to adjust the ad ministration volume thereof to 0.1 ml/kg and dissolving the mixture by adding thereto a hot water.
The change of the value between the data after administration of drug or vehicle and the data before the administration of drug or vehicle was determined, and for each item, the mean values and standard deviation in six animals in each test were determined, and the results are shown in the accompanying FIG. 1 to FIG. 8. […]

[2] = test system: blood pressure and heart rate; experiment: Mean blood pressure and heart rate in rabbits (post auricular artery catheter); type: in vivo; details: rabbit
Source text: as §1
(§2) The change of the value between the data after administration of drug or vehicle and the data before the administration of drug or vehicle was determined, and for each item, the mean values and standard deviation in six animals in each test were determined, and the results are shown in the accompanying FIG. 1 to FIG. 8. The significant test of the test drug was done by t-test at each time of measurement compared to the data in the control group administered with vehicle. The significant standards are indicated separately in the group of less than 5% and the group of less than 1%.

[3] = test system: intraocular pressure; experiment: Measurement of intraocular pressure in rabbits (pneumatonometer); type: in vivo; details: rabbit; 0.003, 0.01 and 0.03 mg/kg, i.v.
Protocol: as §2, with “2) Measurement of Intraocular Pressure The intraocular pressure was measured on the left eye at each time when the above NB values were measured after the administration of drug or vehicle (excepting 5 minutes after administration, the intraocular pressure was not measured) after dropping a 0.4% solution of Benoxil (trademark, manufactured by Santen Pharmaceutical) by using a calibrated pneumatonometer (Alcon Application Pneumatonograph, manufactured by Nippon Alcon). The change” for “The change”

[4] = test system: blood flow in the optic nerve head; details: literature: Nichi-Gan Kaishi Vol. 100, No. 12, p. 923, 1996; cited from earlier work
[5] = Measurement of plasma concentration of drug in rabbit (gas chromatography); type: in vivo; details: Lomerizine hydrochloride 0.03 mg/kg, i.v.
Protocol: Under the same conditions as in the above Example 1, the plasma concentration of Lomerizine in the groups administered with Lomerizine hydrochloride (0.03 mg/kg, i.v.) 5, 15, 30 and 60 minutes after the administration of the drug as follows.
Male New Zealand White rabbits (weighing 2.5-3.5 kg, 3 animals per group) were placed in an OSHIDA-type solid box. A solution of Lomerizine hydrochloride (in an amount so as to be 0.03 mg/kg) in a 20% dimethylacetamide containing 2% tartaric acid was prepared and was administered to the right post auricular vein of the animals. Thereafter, blood sampling was done from left post auricular vein 5, 15, 30 and 60 minutes after the administration of test drug. The collected blood sample was centrifuged (4° C., 3000 rpm×10 minutes) to obtain a plasma sample, and then the amount of Lomerizine in the plasma was measured by gas chromatography.
The gas chromatography was carried out under the following conditions:
GC-14B type gas chromatograph (manufactured by Shimadzu Corporation)
FTD Detector (Shimadzu FTD-8, manufactured by Shimadzu Corporation)
Conditions for Measurement:
Column: Shimadzu CBP1-M25-025 (25m×0.2mm, thickness of membrane: 0.25 μm)
Injection port temperature: 310° C.
Column temperature: 285° C.
Detector temperature: 310° C.
Carrier gas: Helium (2.30 kg/m^2)
Make up gas: Helium (flow rate: 40 ml/minute)
H2 flow rate: 3.8 ml/minute
Air flow rate: 160 ml/minute

[6] = test system: side effects (objective and subjective symptoms); experiment: Side effect-manifestation in aged and younger persons; type: in vivo; details: human
[7] = 0.03 mg/kg, i.v., 15 minutes after the administration

Concentration of Lomerizine in Plasma, Mean ± Standard deviation ([5]; 5 minutes after administration) | Concentration of Lomerizine in Plasma, Mean ± Standard deviation ([5]; 15 minutes after administration) | Concentration of Lomerizine in Plasma, Mean ± Standard deviation ([5]; 30 minutes after administration) | Compound | increasing activity of blood flow in the optic nerve head (rate of change of NB value) vs vehicle ([1]; 0.03 mg/kg, 30 minutes after the administration) | increasing activity of blood flow in the optic nerve head (rate of change of NB value) vs vehicle ([1]; 0.003, 0.01 and 0.03 mg/kg, significant 5 minutes after the administration) | increasing activity of blood flow in the optic nerve head (rate of change of NB value) vs vehicle ([1]; 0.003 and 0.03 mg/kg, 15 minutes after the administration) | heart rate vs vehicle [2, 7] | hypotensive activity (mean blood pressure) vs vehicle [2, 7] | hypotensive activity (mean blood pressure) vs vehicle ([2]; 0.01 and 0.03 mg/kg, i.v., 5 minutes after the administration) | heart rate vs vehicle ([2]; 0.01 and 0.03 mg/kg, i.v., 30 minutes after the administration) | heart rate vs vehicle ([2]; all groups (0.003, 0.01 and 0.03 mg/kg, i.v.), 5 minutes after the administration) | action on the intraocular pressure [3] | action on the optic nerve head (blood flow) [4] | side effect-manifestation in aged persons (65-85 years old) compared with younger persons (15-64 years old) [6]
 |  |  | COC(=O)C1=C(C#N)NC(C)=C(C(=O)OC(C)C)C1c1cccc([N+](=O)[O-])c1 (centres unmarked) [Nilvadipine] | significant increasing activity | higher increasing activity | significant increasing activity | significant increase | significant hypotensive activity | significant hypotensive activity | significant increase | significant increase | no clear action | an activity of increasing blood flow | 
19.8 ± 6.5 ng/mL | 8.1 ± 2.4 ng/mL | 4.9 ± 2.4 ng/mL | Lomerizine |  |  |  |  |  |  |  |  |  |  | not so different
